In ChEMBL document CHEMBL3232969, “Structure-based design and synthesis of tricyclic IAP (Inhibitors of Apoptosis Proteins) inhibitors” (Bioorg Med Chem Lett, 2014):

Columns and labels:
[1] = (§1) Percentage unbound in human plasma; conditions: Fu
[2] = Aqueous solubility of the compound
[3] = Lipophilicity, log D of the compound; conditions: octanol/water
[4] = (§2) Intrinsic clearance in human liver microsomes; conditions: liver microsomes, CLH
[5] = target: Baculoviral IAP repeat-containing protein 2 (Homo sapiens, UniProt Q13490)
Description: Inhibition of cIAP1 BIR3 domain (unknown origin) by fluorescence polarization assay

MDA-MB-231 = experiment: Growth inhibition of human MDA-MB-231 cells; format: functional
[6] = target: Voltage-gated inwardly rectifying potassium channel KCNH2 (Homo sapiens, UniProt Q12809); experiment: Inhibition of human ERG
[7] = Inhibition of Cytochrome P450 (unknown origin); format: ADME; conditions: human
[8] = Intrinsic clearance in rat microsomes; format: ADME, Microsome
Plasma = experiment: as §1
Liver microsome = experiment: as §2; conditions: microsomes
[9] = target: E3 ubiquitin-protein ligase XIAP (Homo sapiens, UniProt P98170); experiment: Inhibition of XIAP BIR3 domain (unknown origin) by fluorescence polarization assay

SMILES | fraction unbound [1] | solubility [2] [µM] | logD ([3]; logD) | microsomal CLint [4] [µL/min/mg] | IC50 [5] [nM] | GI50 (MDA-MB-231) [nM] | GI50 (MDA-MB-231; Homo sapiens, MDA-MB-231) [nM] | further results
CN[C@@H](C)C(=O)N[C@H]1CCC[C@H]2C[C@H]3CCN(S(=O)(=O)c4ccccc4)C[C@H]3N2C1=O | 0.2 | > 1000 | 0.7 | 7.1 | 8000 |  |  | 
CN[C@@H](C)C(=O)N[C@H]1CCC[C@H]2C[C@H]3CCN(C(=O)C(OCC#CC#CCOC(C(=O)N4CC[C@@H]5C[C@@H]6CCC[C@H](NC(=O)[C@H](C)NC)C(=O)N6[C@@H]5C4)c4ccccc4)c4ccccc4)C[C@H]3N2C1=O (stereo in doubt; 53) | 0.051 | > 1000 | 1.8 |  |  | 10 |  | INH [6]: > 33 µM; INH [7]: > 20 µM; microsomal CLint [8]: 7 µL/min/mg
CN[C@@H](C)C(=O)N[C@H]1CCC[C@H]2SC(C)(C)C(C(=O)Nc3cc(C)nn3-c3ccccc3)N2C1=O (stereo partly specified) |  |  |  |  | 50 |  |  | 
CN[C@@H](C)C(=O)N[C@H]1CCC[C@H]2C[C@H]3CCN(C(=O)C(OCC#CC#CCOC(C(=O)N4CC[C@@H]5C[C@@H]6CCC[C@H](NC(=O)[C@H](C)NC)C(=O)N6[C@@H]5C4)c4ccccc4)c4ccccc4)C[C@H]3N2C1=O (single isomer, unassigned; isomer 2) |  |  |  |  |  | 200 |  | Fu (Plasma): 10%; logD [3]: 1.9
C#CCOCC(C(=O)N1CC[C@@H]2C[C@@H]3CCC[C@H](NC(=O)[C@H](C)NC)C(=O)N3[C@@H]2C1)c1ccccc1 (stereo in doubt; 42) | 0.14 | > 1000 | 0.6 |  |  | 3700 |  | CLH (Liver microsome): 23 µL/min/mg
C#CCOCC(C(=O)N1CC[C@@H]2C[C@@H]3CCC[C@H](NC(=O)[C@H](C)NC)C(=O)N3[C@@H]2C1)c1ccccc1 (stereo in doubt; 43) |  |  |  |  |  | > 11000 |  | Fu (Plasma): 17%; logD [3]: 0.8; CLH (Liver microsome): 8.5 µL/min/mg
CN[C@@H](C)C(=O)N[C@H]1CCC[C@H]2C[C@H]3CCN(S(=O)(=O)Cc4ccccc4)C[C@H]3N2C1=O | 0.4 | > 1000 | 0.4 | 25 | 2800 |  | > 11000 | 
CN[C@@H](C)C(=O)N[C@H]1CCC[C@H]2C[C@H]3CCN(CCC4CCCCC4)C[C@H]3N2C1=O | 0.49 | > 1000 | 1.5 | 5 |  |  | 1300 | IC50 [9]: > 10000 nM
CN[C@@H](C)C(=O)N[C@H]1CCC[C@H]2C[C@H]3CCN(CC(C)c4ccccc4)C[C@H]3N2C1=O (mixture of isomers) | 0.18 |  | 1.4 | < 4 | 180 |  | 2500 | 
CN[C@@H](C)C(=O)N[C@H]1CCC[C@H]2C[C@H]3CCN(CCc4ccc(F)cc4)C[C@H]3N2C1=O | 0.48 | > 1000 | 1.3 | < 4 | 21 |  | 120 | 
CCCCN1CC[C@@H]2C[C@@H]3CCC[C@H](NC(=O)[C@H](C)NC)C(=O)N3[C@@H]2C1 |  |  |  |  | 1200 |  |  | IC50 [9]: > 10000 nM
CN[C@@H](C)C(=O)N[C@H]1CCC[C@H]2C[C@H]3CCN(C(=O)c4ccccc4)C[C@H]3N2C1=O | > 0.7 | > 1000 | -0.4 | 7.05 | > 10000 |  |  | IC50 [9]: > 10000 nM
CN[C@@H](C)C(=O)N[C@H](C(=O)N1CC[C@H]2CCN(CCc3ccccc3)C[C@H]21)C1CCCCC1 | 0.057 | > 1000 | 2.5 | 32 | 27 |  |  | 
